Each structure is given as a SMILES string.

Among the data in a melting point compilation (Tetko et al.; mined from patent text by program, amines drawn as free bases though some values may be those of a salt) are melting point values, retold here.

`CNC(=O)C1(CCC#N)c2ccccc2-c2ccccc21`: the melting point (in general, the temperature of the solid-liquid transition) was 185 to 187 °C.

On to `CCCCn1c(=O)c(NC(=O)Nc2c(C(C)C)cc(N)cc2C(C)C)c(-c2cccc(OCCCO)c2)c2cccnc21`, for which the melting point fell in the range of 153 to 155 °C.

For the compound `Cc1cc(Nc2cncc(Nc3ccc(Cl)c(OCCN(C)C)c3)n2)n[nH]1`, the melting point is 145 to 147 °C.

In the case of `COC(=O)C1CCC2C3CCC4CC(O)CCC4(C)C3C(NC(=O)OCC(Cl)(Cl)Cl)CC12C` (stereo unspecified), the melting point was 140 to 143 °C.

In the case of `CCOC(=O)c1[nH]cc(-c2ccc(F)cc2)c1-c1ccc(F)cc1`, the melting point was in the range of 157 to 159 °C.

`CCOC(=O)c1ccc(-c2[nH]nc3c2C(=O)c2c(NC(N)=O)cccc2-3)s1` registered a melting point of over 280 °C.

In turn, `COc1ccc2ccc(N3C(=O)c4ccccc4C3OCC(=O)OC(C)(C)C)nc2n1` (stereo unspecified) gave a melting point of 188 °C.

Consider `CC(=O)Nc1c(C(=O)c2ccc3ccccc3c2)[nH]c2cc(Cl)ccc12`, for which the melting point was in the range of 167 to 169 °C.

On to `COC1OCC2C(O)C3CCCCC3CC12` (stereo unspecified), for which the melting point was in the range of 75 to 77 °C.

As to `CC(C)(C)c1csc(NC(=O)c2ccn3c(=O)c(/C=C/C(=O)O)c(N4CCC(OC(=O)NCCO)CC4)nc3c2)n1`, the melting point fell in the range of 231 to 234 °C.

`CC(C)(C)c1cccc(S(=O)(=O)n2c(Cc3ccc(C(=O)O)s3)cc3cc(C(F)(F)F)ccc32)c1` yielded a melting point of 110 °C.

`COc1ccc2ccc(N3C(=O)c4ccccc4C3CC(=O)CCCO)nc2n1` (stereo unspecified) yielded a melting point of 152 °C.

Take `Cc1cccc(NC#N)c1N1CCOCC1`: the melting point lay within 137 to 138 °C.

For `CCOc1cc2c(cc1OC)C(c1ccc(NS(=O)(=O)c3ccc(C)cc3)cc1)=N[C@H]1CCN(C)C[C@@H]21`, the melting point was 207 to 219 °C.

In the case of `CC(CC=O)P(=O)(O)CCCCc1ccccc1` (stereo unspecified), the melting point is 138 °C.

The compound `COC1=NS(=O)(=O)N=C1NCCCCC#CCN(C)C` displayed a melting point of 172 to 174 °C.

On to `CCc1nc(CC)c(CO)c(-c2ccccc2)c1C=C(C)C`, for which the melting point was in the range of 103 to 104 °C.

With `COc1ccc(/C=C/CN2CCN(C3c4ccccc4CCc4ncccc43)CC2)cc1[N+](=O)[O-]` (stereo unspecified), the melting point lay within 159 to 161 °C.

In turn, `Cc1cc(-c2cnn3c(C(F)(F)F)cc(-c4ccc(C(F)(F)F)cc4)nc23)cc(C)n1` displayed a melting point of 257 °C.

Regarding `CC(C)(C)OC(=O)n1cc2c(c1C=O)OCCO2`, the melting point was in the range of 94 to 95 °C.

In the case of `C=CCNc1nc(NCC=C)c2scc(CC)c2n1`, the melting point worked out at 55 °C.

On to `CCc1nc2c(N)nc3ccccc3c2n1CCCCNC(=O)Nc1ccccc1`, for which the melting point lay in the range of 180 to 181 °C.

The compound `CCCCCCCCCCCCOC(=O)NCCC(=O)NC(Cc1c[nH]cn1)C(=O)O` (stereo unspecified) had a melting point of 168 to 172 °C.

In turn, `COc1cc2ncc(C#N)c(Nc3c(C)cccc3O)c2cc1OC` displayed a melting point of 245 to 247 °C.

In turn, `CC(C)(C)c1cc(CCc2ccccc2NC(=O)NC2CCCCCC2)cc(C(C)(C)C)c1O` came in with a melting point of 177 to 178 °C.

As for `O=C(Nc1cccc(S(=O)(=O)N2CCCC2)c1)c1cnn2c(C(F)F)cc(-c3ccc(Cl)c(Cl)c3)nc12`, the melting point stood at 245 °C.

Compound `COc1ccc(-c2cc3n(n2)C(=O)c2ccccc2-3)cc1` returned a melting point of 180 to 181 °C.

On to `COc1cccc(-c2nc3cc(C4=NNC(=O)SC4C)ccc3n2CC(C)C)c1` (stereo unspecified), for which the melting point fell in the range of 100 to 105 °C.

`NCc1cccc(C2CCN(c3nc4c(cc3F)c(=O)c(C(=O)O)cn4C3CC3)C2)c1` (stereo unspecified) returned a melting point of 274 to 276 °C.

Regarding `COC(=O)Nc1nc2ccc(Oc3ccncc3)cc2[nH]1`, the melting point lay within 220 to 224 °C.

In turn, `Cc1cccc(NC(=O)NC2N=C(c3ccccc3F)c3ccccc3N(Cc3ccccn3)C2=O)c1` (racemic) came in with a melting point of 215 to 216 °C.

The compound `O=C(O)c1ccc(CCCOCCCCCCBr)cc1` gave a melting point of 70 to 71 °C.

As for `COc1ccc(/C=C/C(=O)Nc2ccccc2C(=O)OCC(=O)NCC(C)(C)SN=O)cc1OC`, the melting point was in the range of 135 to 137 °C.

With `O=C(CCN1C(=O)c2ccccc2C1=O)c1ccc(Cl)cc1C(=O)c1ccccc1`, the melting point was in the range of 163 to 164 °C.

For the compound `CC(C)(C)[Si](C)(C)N1C(=O)CC1C(=O)NC(Cc1c[nH]c2ccccc12)C(=O)OCc1ccccc1` (stereo unspecified), the melting point was 60 to 65 °C.

In turn, `O=C(O)CCCCCCCCCCCCC(=O)OCc1ccccc1` showed a melting point of 73.5 to 74 °C.

In turn, `Cn1nc(-c2cnc(N)nc2-c2cccc(O)c2)ccc1=O` gave a melting point of 285 °C.

`COC(=O)c1cc(N)c(C(C)(C)C)c(N)c1` came in with a melting point of 71 to 73 °C.

`CC(C)Oc1ccc(-c2nn(C(C)c3oc4cccc(N5CCOCC5)c4c(=O)c3-c3ccccc3)c3ncnc(N)c23)cc1F` (stereo unspecified) registered a melting point of 211 to 214 °C.

As for `Cc1ccc(-c2nnn(C(c3ccccc3)(c3ccccc3)c3ccccc3)n2)cc1`, the melting point lay within 172 to 175 °C.

For the compound `BrCc1cccc(-c2cccc(CBr)n2)n1`, the melting point was 180 to 181 °C.

In turn, `Cc1cc(CSCCNc2nc(NC(=O)Nc3ccccc3)nn2C)oc1CN(C)C` had a melting point of 166 to 167 °C.

`CCOC(=O)CC(=O)CC(c1ccccc1)c1ccc(OC)c(OC2CCCC2)c1` (stereo unspecified): the melting point was in the range of 56 to 58 °C.

Consider `O=c1[nH]c2cc(C(F)(F)F)c(Cl)c(Cl)c2[nH]c1=O`, for which the melting point is over 250 °C.

Turning to `Cc1cc(C)nc(N(C=S)c2ccccc2)n1`, the melting point lay within 161 to 165 °C.

In turn, `CCN(CC)Cc1cc(C2(c3cccc(-c4cccnc4F)c3)N=C(N)N(C)C2=O)cn1CCF` (stereo unspecified) gave a melting point of 121 to 140 °C.

The compound `Cc1ccccc1CCC(=NO)C(=O)C(F)(F)F` registered a melting point of 80 to 81 °C.

`O=C(CCCCOCc1ccccc1)c1ccc([N+](=O)[O-])cc1` yielded a melting point of 75 °C.

Regarding `Nc1ncc(Cl)c(CN2CCCC2)c1Cl`, the melting point fell in the range of 98 to 101 °C.

With `CC(=O)C1=C(O)C(=C(C)Nc2ccccc2Cl)C(=O)OC1=O`, the melting point fell in the range of 143 to 145 °C.

The compound `CCCc1c(OCCOc2cccc(C(=O)O)c2)ccc(C(C)=O)c1O` showed a melting point of 155 °C.

`CCOC(=O)c1cnn(-c2nc(-c3cccc(C(F)(F)F)c3)cs2)c1C` had a melting point of 138 °C.

As for `CCOc1nc(Nc2ccc(F)c(Cl)c2)nc(NC2CCN(S(C)(=O)=O)CC2)n1`, the melting point fell in the range of 197 to 199 °C.

Consider `O=C(CCl)Nc1nc(Cl)c(-c2ccccc2)s1`, for which the melting point lay in the range of 215 to 216 °C.

Consider `N#Cc1ncccc1Oc1ccccc1`, for which the melting point fell in the range of 79 to 82 °C.

Compound `OC1CCc2cc(Cl)c(Cl)cc21` (stereo unspecified) had a melting point of 84 °C.

As to `CCC(CC)c1ccc(Cl)c2nc3n(c12)CCCCN3c1ccc(OC(F)(F)F)cc1Br`, the melting point fell in the range of 114 to 117 °C.

In the case of `CC(CCc1ccc(F)cc1)(Cn1ccnc1)Sc1cc(Cl)ccc1Cl` (stereo unspecified), the melting point came to 148 °C.

For the compound `COc1ccc(C(=O)c2cn(C)c3ccc([N+](=O)[O-])cc23)cc1`, the melting point amounted to 229 °C.

As to `CCCCCCCCCCCCC(Oc1ccc(NS(=O)(=O)CCCC)cc1)C(=O)Nc1c(C)cc(C)c(-c2n[nH]c3cc(C(C)(C)C)nn23)c1C` (stereo unspecified), the melting point lay in the range of 117 to 120 °C.

For the compound `CCCCCCCCc1cnc(-c2ccc(F)cc2)nc1`, the melting point was 23.5 °C.

Consider `CCCCS(=O)(=O)NC1Cc2ccc(C3=NNC(=O)CC3(C)C)cc2C1` (stereo unspecified), for which the melting point lay in the range of 159 to 161 °C.

On to `COc1cc(-c2ncnc(C)c2Cl)c(F)cc1Cl`, for which the melting point lay within 136 to 140 °C.

As to `CCCn1c(=O)c2[nH]c(-c3cc(C)n(CC(=O)Nc4ccc(F)cc4)n3)nc2n(CCC)c1=O`, the melting point fell in the range of 205 to 207 °C.

Regarding `Cc1ccc(N2CN(Cc3ccccc3)C3=NN=CC3=C2N)cc1`, the melting point lay in the range of 195 to 196 °C.

Consider `CCOC(=O)c1ncn(-c2cc(C(=O)OC)c([N+](=O)[O-])cc2C(F)(F)F)n1`, for which the melting point was in the range of 190 to 192 °C.

In turn, `C[Si](C)(C)C#Cc1ccc2c(c1)NC(=O)CO2` came in with a melting point of 142 °C.

In turn, `O=C1N(Cc2noc(C3CC3)n2)c2ccccc2C12COc1cc3c(cc12)OCO3` (stereo unspecified) displayed a melting point of 136 to 137 °C.

Consider `CC(C)Cc1ccc2oc(=O)c(=O)oc2c1`, for which the melting point lay within 92 to 97 °C.

The compound `O=C(NC1CC1)c1nc(-c2ccccc2)c(-c2ccc(=O)[nH]n2)s1` registered a melting point of over 250 °C.

`Fc1ccccc1NC(=S)N1CCN(c2cnccn2)CC1` came in with a melting point of 151 to 153 °C.

`CC(Cc1ccccc1)C1CC=C2C3=C(CCC21C)C1(C)CCC(O)CC1CC3` (stereo unspecified) came in with a melting point of 156 to 157 °C.

As for `CC(=O)N1CCc2c(sc(C)c2C(=O)CN2CCC(c3noc4cc(F)ccc34)CC2)C1`, the melting point was in the range of 92 to 94 °C.

As to `COCCN(CCOC)C1CCN(c2ccc(NC(=O)c3cnn(-c4ccc(Cl)cc4)c3C)cc2C#N)CC1`, the melting point is 152 °C.

Compound `CNC(=O)c1ccc(C=CC(=O)NCC(=O)N(C)c2ccc(C)c(CCl)c2C)cc1` gave a melting point of 232 °C.

The compound `CC(C)c1nn(-c2ccc(C(F)(F)F)cn2)cc1CCCOc1cc(CCC(=O)O)n(C(C)C)n1` registered a melting point of 130 to 131 °C.

`Cc1oc(-c2ccccc2)nc1CCOc1ccc(OC(C)(C)C(=O)O)cc1` registered a melting point of 129 to 130 °C.

`C=CCn1c(=O)c2c(nc(/C=C/c3ccc(OC(C)=O)c(OC)c3)n2C)n(CC=C)c1=O` showed a melting point of 207 to 208 °C.

`COc1ccc(Nc2cccc3c2C(=O)N(C2CCC(=O)NC2=O)C3=O)cc1OC` (stereo unspecified): the melting point lay in the range of 215 to 217 °C.

Consider `COc1c(C(N)=O)sc(C(N)=O)c1N=NN(C)C`, for which the melting point lay within 226 to 228 °C.

In turn, `Cn1c(C(F)(F)F)cc(=O)n(-c2ccc3snc(C=O)c3c2)c1=O` had a melting point of 193 to 194 °C.

As to `CS(=O)c1ccc(C(=O)O)cc1[N+](=O)[O-]` (stereo unspecified), the melting point was in the range of 238 to 239 °C.

The compound `CC(C)[C@H](NC(=O)N(C)Cc1ccccn1)C(=O)N[C@@H](Cc1ccccc1)[C@@H](O)[C@@H](O)[C@H](Cc1ccccc1)NC(=O)OCc1cccnc1` returned a melting point of 84 to 85 °C.

On to `CCN(CC)C(=O)n1cc(C(=O)C2CSC(c3cccnc3)N2)c2ccccc21` (stereo unspecified), for which the melting point came out at 84 °C.

In turn, `O=C(Nc1ccccc1)OCc1ccccc1` showed a melting point of 92 to 96 °C.

In the case of `COC(=O)c1cc(=O)c(OCc2ccccc2)co1`, the melting point lay in the range of 134 to 136 °C.
